Measurements: patent US7091185B2, “Periodic antimicrobial peptides” (Dow Global Technologies Inc., priority 2003, dated 2006)
Like-named read-outs stand apart in the source and are kept apart here. Where no end group is shown, it is not given here.

Key:
Red blood cell toxicity = assay type: cell-based; details: red blood cells (RBC); RBCs; concentration required for 50% toxicity; read-out: TX50
Red blood cells (RBC) = test: Red blood cell toxicity; assay type: cell-based
[1] = tested on: herpes simplex virus (HSV); details: mixed with a modified lipid octyl-glycerol; compared with magainins and defensins; cited from earlier work
P. aeruginosa ATCC 10145 = details: ATCC 10145
E. coli ATCC 2592 = details: ATCC 2592
[2] = tested on: S. aureus (methicillin resistant) ATCC 33591
HeLa cell line = test: HeLa MTS cellular reduction toxicity assay; assay type: cell-based; details: for TX50: 24 h, MTS
Summary of the method: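 TX50, the concentration giving 50% toxicity, obtained by sigmoidal fitting of relative toxicity versus peptide-free cells. Readout: MTS reduction with PMS, 1 h, A490. Peptides applied in 2-fold serial dilutions to 48 h HeLa monolayers for 24 h at 37 °C.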

[3] = tested on: rat prostate adenocarcinoma; details: rat prostate adenocarcinoma model, cited from earlier work
Cr. Neoformans 32045 = assay type: cell-based
Summary of the method: (§1)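 Broth microdilution per NCCLS, adapted for fungi with Sabouraud Dextrose Broth; KFAK-repeat peptide multimers in two-fold dilutions from 1,000 to 1 μg/ml. Growth by OD620 after overnight incubation; IC50 by sigmoidal fit, in duplicate, repeated at least twice.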

C. albicans 10231 = assay type: cell-based; details: 10231
Summary of the method: as §1

T. vaginalis = details: background statement; cited from earlier work
P. aeruginosa = details: background statement; cited from earlier work
C. trachomatis = details: background statement; cited from earlier work
[4] = tested on: P. aeruginosa ATCC 15442 / Staph. aureus ATCC 6538; test: HMARQ biocidal testing; assay type: cell-based; details: summary of Table 6; peptides too small to span the membrane
Description: Biocide efficacy protocols were improved by reducing sample size, organizing the test material into an array format, implementing most probable number (MPN) quantitation and using multi-channel liquid handling equipment. We call the new method “high-throughput microanalysis and rapid quantitation” or “HMARQ.” HMARQ is directly applicable to current industrial efficacy tests such as multi-cycle preservation challenge or time course disinfection tests.
HMARQ is performed in a high throughput plate, such as 96-well microtiter plates. Typical sample volumes have been reduced down to 200 to 300 μL, but can be reduced further if desired. In these samples, no more than 10% of the total volume will be composed of the biocide and organism solution, and all non-matrix additions are normalized for all samples.
The sample matrix is first inoculated with the desired concentration of microorganisms. Inoculated sample matrix is then added to the 96-well assay block containing the biocide(s) under study. Each sample block contains biocide treated samples and untreated control samples (lacking biocide). Once the samples are prepared, the entire block of samples is mixed by vortexing until each sample is homogenous. In general, the study starts once mixing is complete, and samples are removed as required for the analysis. When Kill Time testing (rate of biocide activity) is performed, the microorganisms are added after biocide addition to the samples, allowing for rapid mixing and analysis.
Bacterial concentration (CFU/mL) is determined using the most probable number method (MPN). […] A serial 1:10 dilution will yield a bacterial concentration resolution of 1 log and the log reduction is determined by comparing the concentration of organisms in a treated sample to the concentration of organisms in untreated samples. […]
Using the HMARQ test described above, periodic peptides were generated and tested for Kill Activity. […] Units are expressed as ppm (μg/mL) needed for 3.5 log kill at 15 min or 24 hour and the results are shown below.

P. aeruginosa ATCC 15442 [5] = test: HMARQ biocidal kill activity; assay type: cell-based; details: P. aeruginosa ATCC 15442 (gram−)
Summary of the method: (§2)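 Values are biocide ppm (μg/mL) needed for 3.5 log reduction relative to untreated controls after 15 min or 24 h exposure. Organisms were added to biocide-containing sample matrix (200–300 μL, mixed by vortex), then enumerated by most-probable-number 1:10 dilution series in TSB/resazurin.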

Staph. aureus ATCC 6538 [6] = test: HMARQ biocidal kill activity; assay type: cell-based; details: Staph. aureus ATCC 6538 (gram+)
Summary of the method: as §2

Staph. aureus ATCC 6538 [7] = test: HMARQ biocidal kill activity; assay type: cell-based; details: Staph. aureus ATCC 6538, 15 min, 3 log kill
P. aeruginosa ATCC 15442 [8] = test: HMARQ biocidal kill activity; assay type: cell-based; details: P. aeruginosa ATCC 15442, 15 min, 3 log kill
[9] = S. aureus (methicillin resistant) 33591, gram+

| Substance | HC50 at 24 h (Red blood cell toxicity) [µg/mL] | IC50 (P. aeruginosa ATCC 10145) [µg/mL] | IC50 (E. coli ATCC 2592) [µg/mL] | MIC (E. coli ATCC 2592) [µg/mL] | IC50 ([2]; ATCC 33591) [µg/mL] | MIC ([2]; ATCC 33591) [µg/mL] | % kill at 500 μg/ml (HeLa cell line) [%] | TX50 (HeLa cell line) [µg/mL] | IC50 (Cr. Neoformans 32045) [µg/mL] | MIC (Cr. Neoformans 32045) [µg/mL] | IC50 (C. albicans 10231) [µg/mL] | MIC (C. albicans 10231) [µg/mL] | biocidal activity (statement) [4] | ppm needed for 3.5 log kill at 15 min (P. aeruginosa ATCC 15442 [5]) [ppm] | ppm needed for 3.5 log kill at 24 hr (P. aeruginosa ATCC 15442 [5]) [ppm] | ppm needed for 3.5 log kill at 15 min (Staph. aureus ATCC 6538 [6]) [ppm] | ppm needed for 3.5 log kill at 24 hr (Staph. aureus ATCC 6538 [6]) [ppm] | % kill at 250 μg/ml (Red blood cells (RBC)) [%] | MIC (P. aeruginosa ATCC 10145) [µg/mL] | other results |
| --- | --- | --- | --- | --- | --- | --- | --- | --- | --- | --- | --- | --- | --- | --- | --- | --- | --- | --- | --- | --- |
| FAKKFAKKFKKFAKKFAKFAFAF [D2A21, reference compound] | 52 | 11.3 | 4.5 | 8 to 16 | 11.9 | 62 to 125 | 7.1 | 16.9 | 21.9 | 62 to 125 | 121.5 | >250 | – | – | – | – | – | – | – | % kill at 250 μg/ml (Red blood cells (RBC); RBCs, 250 μg/ml): 93.1%; activity against HSV compared with other peptides [1]: better than five other peptides; survival rate ([3]; improved from 25%, preliminary results (Arlotti 2001)): 75%; toxicities [3]: not causing any significant toxicities; activity (statement) (T. vaginalis): has activity against; activity (statement) (P. aeruginosa): has activity against; activity (statement) (C. trachomatis): has activity against |
| FKA FKA (FKAFKA; Periodic Peptide) [FKA(2)] | – | – | – | – | – | – | – | – | – | – | – | – | demonstrate biocidal activity | >500 | 125 | 16 | 500 | – | – | – |
| FKA FKA FKA FKA (FKAFKAFKAFKA; Periodic Peptide) [FKA(4)] | – | – | – | – | – | – | – | – | – | – | – | – | demonstrate biocidal activity | >500 | 125 | 4 | 250 | – | – | – |
| KFAK KFAK KFAK KFAK KFAK KFAK KFAK KFAK KFAK KFAK KFAK KFAK (KFAKKFAKKFAKKFAKKFAKKFAKKFAKKFAKKFAKKFAKKFAKKFAK; Periodic Peptide) [KFAK(12)] | – | – | – | – | – | – | – | – | – | – | – | – | – | 16 | 31 | – | >500 | – | – | ppm at 15 min, cell marked (3 log) (Staph. aureus ATCC 6538 [7]): 31(3 log) ppm |
| LK LK (LKLK; Periodic Peptide) [LK(2)] | – | – | – | – | – | – | – | – | – | – | – | – | demonstrate biocidal activity | >500 | 250 | >500 | 16 | – | – | – |
| LKLKLKLKLKLKLKLKLKLKLKLK [LK (12), LK LK LK LK LK LK LK LK LK LK LK LK] | > 500 | 41 | 23 | 62 to 125 | 85 | >250 | 60.0 | 49 | 22 | 32 to 62 | 175 | 250 to 500 | – | – | 4 | 4 | 8 | 35 | 45 | ppm at 15 min, cell marked (3 log) (P. aeruginosa ATCC 15442 [8]): 16 (3 log) ppm |
| LRLRLRLRLRLRLRLRLR [LR (9), LR LR LR LR LR LR LR LR LR] | > 500 | >250 | 70 | >125 | – | – | 96.7 | >500 | 21 | 62 to 125 | 195 | 250 to 500 | – | – | 4 | 16 | 8 | – | >250 | % kill at 250 μg/ml (Red blood cells (RBC); RBCs, 250 μg/ml): 24%; IC50 [2, 9]: 28 µg/mL; MIC [2, 9]: 125 to 250 µg/mL; ppm at 15 min, cell marked (3 log) (P. aeruginosa ATCC 15442 [8]): 31(3 log) ppm |
| RFARRFARRFARRFARRFARRFARRFAR [RFAR (7), RFAR RFAR RFAR RFAR RFAR RFAR RFAR] | 20 | 20 | 8 | 32 to 62 | 31 | 125 to 250 | 12.4 | 106 | 45 | 62 to 125 | 172 | 250 to 500 | – | 63 | 125 | >500 | 4 | 100 | 62 | – |
| RFARRFARRFARRFARRFARRFARRFARRFAR [RFAR (8), RFAR RFAR RFAR RFAR RFAR RFAR RFAR RFAR] | 17 | 30 | 12 | 32 to 62 | 20 | 125 to 250 | 9.5 | 71 | 32 | 62 to 125 | 144 | 250 to 500 | – | >500 | 16 | >500 | 125 | 100 | 62 | – |
